The structures appear in SMILES notation.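 Growth conditions: 96-well plates. Treatment: test compound, 48 hours, 5 concentrations. Analysis: linear interpolation between bracketing concentrations; unreached endpoints set to highest concentration. Abbreviation: GI50, concentration required for 50% inhibition of growth.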 Activity calls are given as the source filed them. Rule as the data show it: active = GI50 up to about 1.1 µM and inactive = higher.

Test systems include A498; COLO 205; DU-145; EKVX; IGROV-1; K562; LOX IMVI; M14; MDA-N; Malme-3M; NCI-H522; NCI/ADR-RES; OVCAR-4; PC-3; RPMI-8226; SF-295; SK-MEL-2; SK-MEL-5; SN12C; TK-10.
Holding throughout (assay): NCI anticancer screen, dose series, 48 h

As to `CC(=O)ON(C(C)=O)c1ccc(-c2nc3ccccc3s2)cc1C`, the GI50 with A498 was 5.11 µM (inactive); with COLO 205, 20.5 µM (inactive); in the test on DU-145, 37.7 µM (inactive); in the test on EKVX, 2.77 µM (inactive); in the test on IGROV-1, 13 µM (inactive); with K562 it was 45.2 µM (inactive). The GI50 in the test on LOX IMVI was 37.4 µM (inactive); in the test with M14, 59 µM (inactive); in the test on MDA-N, 75.5 µM (inactive); with Malme-3M, > 100 µM (inactive); with NCI-H522 it was 38.5 µM (inactive); in the test on NCI/ADR-RES, 21.3 µM (inactive). Moreover, the GI50 in the test with OVCAR-4 was 51.4 µM (inactive); with PC-3, 30.5 µM (inactive); in the test on RPMI-8226, 48.2 µM (inactive); in the test with SF-295 it was 31.6 µM (inactive); with SK-MEL-2 it was > 100 µM (inactive); with SK-MEL-5 it was 21.5 µM (inactive). In addition, the values for the GI50 with SN12C and with TK-10 were 31 µM (inactive) and 2.96 µM (inactive), respectively.

Consider `COc1cc2c(cc1OC)C(OC)N(C)c1c-2ccc2cc3c(cc12)OCO3` (stereo not given), for which the GI50 in the test with A498 was 0.458 µM (active); with COLO 205, 0.733 µM (active); in the test with DU-145, 2.26 µM (inactive); with EKVX it was 1.82 µM (inactive); in the test with IGROV-1, 0.805 µM (active); in the test on K562, 1.75 µM (inactive). For the same compound, the GI50 with LOX IMVI is 5.36 µM (inactive); in the test with M14 it was 3.3 µM (inactive); in the test on MDA-N it was 13.6 µM (inactive); in the test with Malme-3M it was 3.51 µM (inactive); in the test with NCI-H522, 0.152 µM (active); in the test on NCI/ADR-RES it was 26.8 µM (inactive). The GI50 in the test with OVCAR-4 was 4.93 µM (inactive); in the test on PC-3, 1.33 µM (inactive); in the test on RPMI-8226, 1.47 µM (inactive); in the test with SF-295 it was 2.82 µM (inactive); in the test with SK-MEL-2 it was 1.98 µM (inactive); in the test on SK-MEL-5, 1.8 µM (inactive). In addition, the values for the GI50 in the test with SN12C and in the test on TK-10 were 0.813 µM (active) and 6.75 µM (inactive), respectively.

Regarding `CCOC(=O)c1c(C)n(CCN2CCN(C)CC2)c2ccc(OC)cc12`, the GI50 in the test with A498 was 22.5 µM (inactive); in the test with COLO 205, 16.9 µM (inactive); in the test with DU-145, > 100 µM (inactive); in the test on EKVX, > 100 µM (inactive); with IGROV-1, 31.2 µM (inactive); in the test on K562, 20.7 µM (inactive). The GI50 in the test with LOX IMVI is 16.6 µM (inactive); in the test with M14, 16 µM (inactive); with MDA-N, 19.6 µM (inactive); with Malme-3M, 21.9 µM (inactive); in the test on NCI-H522, 28.6 µM (inactive); in the test with NCI/ADR-RES, 69.7 µM (inactive). Also, the GI50 with OVCAR-4 was 48.6 µM (inactive); in the test on PC-3 it was 34 µM (inactive); with RPMI-8226 it was 20.4 µM (inactive); with SF-295, 34.8 µM (inactive); with SK-MEL-2, 17.6 µM (inactive); with SK-MEL-5, 16.5 µM (inactive). In addition, the GI50 in the test with SN12C is 50.9 µM (inactive); with TK-10 it was 33.3 µM (inactive).

For `c1cncc(CNCc2cccnc2)c1`, the GI50 in the test on A498, in the test with COLO 205, in the test on DU-145, with EKVX, in the test with IGROV-1 and in the test on K562 was > 100 µM (inactive) throughout. Moreover, the GI50 in the test with LOX IMVI, in the test with M14, in the test on MDA-N, in the test on Malme-3M, in the test with NCI-H522 and with NCI/ADR-RES was > 100 µM (inactive) each time. Besides, the GI50 with OVCAR-4, in the test on PC-3, in the test with RPMI-8226, in the test with SF-295, with SK-MEL-2 and in the test on SK-MEL-5 was > 100 µM (inactive) throughout. For the same compound, the GI50 in the test on SN12C and in the test with TK-10 was > 100 µM (inactive) each time.

Regarding `C/C=C/C(=O)N1C(=O)OC[C@@H]1c1ccccc1`, the GI50 with A498 is 26.1 µM (inactive); in the test on COLO 205, 21.8 µM (inactive); in the test with DU-145, 20.5 µM (inactive); with EKVX, 17.6 µM (inactive); in the test on IGROV-1, 19.4 µM (inactive); in the test on K562 it was 22.8 µM (inactive). For the same compound, the GI50 with LOX IMVI is 18.2 µM (inactive); with M14 it was 19.4 µM (inactive); in the test with MDA-N, 20.7 µM (inactive); with Malme-3M, 20.4 µM (inactive); with NCI-H522, 20.4 µM (inactive); in the test on NCI/ADR-RES it was 22.4 µM (inactive). Besides, the GI50 in the test on OVCAR-4 is 23 µM (inactive); with PC-3, 18.3 µM (inactive); in the test on RPMI-8226, 26.1 µM (inactive); in the test with SF-295, 26.7 µM (inactive); in the test on SK-MEL-2, 19.1 µM (inactive); in the test on SK-MEL-5, 18.7 µM (inactive). Also, the values for the GI50 in the test with SN12C and with TK-10 were 20.5 µM (inactive) and 17.5 µM (inactive), respectively.

As for `C[C@]12CCC(=O)C=C1CC[C@@H]1[C@@H]2[C@@H](O)C[C@@]2(C)[C@H]1CC[C@]2(O)C(=O)CO` [HYDROCORTISONE], the GI50 with A498 was > 100 µM (inactive); in the test with COLO 205, > 100 µM (inactive); in the test with DU-145, > 100 µM (inactive); with EKVX, > 82.4 µM (inactive); in the test on IGROV-1, > 100 µM (inactive); in the test on K562, > 100 µM (inactive). The GI50 with LOX IMVI, with M14, with MDA-N, in the test with Malme-3M, in the test with NCI-H522 and with NCI/ADR-RES was > 100 µM (inactive) throughout. The GI50 in the test on OVCAR-4 is > 100 µM (inactive); in the test with PC-3, > 100 µM (inactive); in the test on RPMI-8226, 0.34 µM (active); in the test on SF-295, > 100 µM (inactive); in the test with SK-MEL-2, > 100 µM (inactive); with SK-MEL-5, > 100 µM (inactive). Moreover, the GI50 is 31.8 µM (inactive) with SN12C and > 100 µM (inactive) in the test on TK-10.

`Cc1ccc(C(=O)/C=C2\Nc3ccccc3SC2=O)c(C)c1`: the GI50 was > 100 µM (inactive) in the test with A498; 53.1 µM (inactive) in the test with COLO 205; 75.7 µM (inactive) with DU-145; 54.3 µM (inactive) in the test on EKVX; 29.8 µM (inactive) in the test with IGROV-1; 41.3 µM (inactive) in the test on K562. Also, the GI50 with LOX IMVI is 37.4 µM (inactive); in the test on M14, 62.1 µM (inactive); in the test on MDA-N, 62.2 µM (inactive); with Malme-3M, 84.3 µM (inactive); with NCI-H522, 26.9 µM (inactive); in the test with NCI/ADR-RES, 42.3 µM (inactive). The GI50 in the test with OVCAR-4 is 26.5 µM (inactive); in the test on PC-3 it was 47.9 µM (inactive); in the test with RPMI-8226 it was 28.5 µM (inactive); with SF-295, 46.5 µM (inactive); in the test with SK-MEL-2, 42.1 µM (inactive); in the test with SK-MEL-5, 38.5 µM (inactive). The GI50 in the test with SN12C was 40.1 µM (inactive); in the test on TK-10 it was > 100 µM (inactive).

Source of the values: ChEMBL document CHEMBL1201862, “PubChem BioAssay data set” (2004).
